Source: US6610675B1 (priority 1980, dated 2003)

Columns and labels:
[1] = tested on: granulation tissue formation caused by implantation of cotton pellets; assay: Granuloma formation test (local cotton pellet granuloma assay); format: in vivo, rat
Description: The test compound was dissolved in acetone and aliquots of varying concentrations were injected into cotton pellets. The pellets were dried and then one pellet was implanted beneath the skin of each test rat. Six days later, the animals were sacrificed and the granulation tissue (granuloma) which formed in and around the implanted pellet was removed, dried and weighed. In addition, the thymi and adrenals were removed and weighed.

thymus weight in rats = assay: Thymus inhibition testing (subcutaneous administration); format: in vivo, rat; conditions: three days
Description: Several further studies were undertaken to determine the effects of selected compounds of the invention on thymi weights in rats when the drugs were systemically administered. In each of these studies, male Sprague-Dawley rats were used. […] On the fifth day (48 hours following the last treatment), the animals were sacrificed and the thymi weights were recorded. […] It is evident that the higher the inhibition of thymus activity at a given dose, the more toxic the compound is.

[2] = chloromethyl 11β-hydroxy-17α-isopropoxycarbonyloxyandrost-4-en-3-one-17β-carboxylate = 1

CC(C)OC(=O)O[C@]1(C(=O)OCCl)[C@@H](C)C[C@H]2[C@@H]3CCC4=CC(=O)C=C[C@]4(C)[C@@]3(F)[C@@H](O)C[C@@]21C [chloromethyl 9α-fluoro-11β-hydroxy-17α-isopropoxycarbonyloxy-16β-methylandrosta-1,4-dien-3-one-17β-carboxylate]
Body wt. gain ([1]; Table IV, 1 μg/pellet): 33.0 ± 1.7 g
Granulation tissue Dry wt. ([1]; Table IV, 1 μg/pellet): 44.4 ± 5.4 mg
Granulation tissue Dry wt. Inhibition ([1]; Table IV, 1 μg/pellet): 45.3%
Granulation tissue Wet wt. ([1]; Table IV, 1 μg/pellet): 423 ± 19 mg
Granulation tissue Wet wt. Inhibition ([1]; Table IV, 1 μg/pellet): 25.3%
Thymus wt. ([1]; Table IV, 1 μg/pellet): 526 ± 30 mg
Body wt. gain ([1]; Table IV, 3 μg/pellet): 30.4 ± 1.1 g
Granulation tissue Dry wt. ([1]; Table IV, 3 μg/pellet): 26.9 ± 4.4 mg
Granulation tissue Dry wt. Inhibition ([1]; Table IV, 3 μg/pellet): 66.9%
Granulation tissue Wet wt. ([1]; Table IV, 3 μg/pellet): 351 ± 19 mg
Granulation tissue Wet wt. Inhibition ([1]; Table IV, 3 μg/pellet): 38.0%
Thymus wt. ([1]; Table IV, 3 μg/pellet): 471 ± 20 mg
Body wt. gain ([1]; Table IV, 10 μg/pellet): 33.0 ± 1.5 g
Granulation tissue Dry wt. ([1]; Table IV, 10 μg/pellet): 29.9 ± 3.3 mg
Granulation tissue Dry wt. Inhibition ([1]; Table IV, 10 μg/pellet): 63.2%
Granulation tissue Wet wt. ([1]; Table IV, 10 μg/pellet): 362 ± 8 mg
Granulation tissue Wet wt. Inhibition ([1]; Table IV, 10 μg/pellet): 36.0%
Thymus wt. ([1]; Table IV, 10 μg/pellet): 474 ± 25 mg
Body wt. gain ([1]; Table IV, 30 μg/pellet): 31.8 ± 1.7 g
Granulation tissue Dry wt. ([1]; Table IV, 30 μg/pellet): 19.9 ± 2.3 mg
Granulation tissue Dry wt. Inhibition ([1]; Table IV, 30 μg/pellet): 75.5%
Granulation tissue Wet wt. ([1]; Table IV, 30 μg/pellet): 315 ± 12 mg
Granulation tissue Wet wt. Inhibition ([1]; Table IV, 30 μg/pellet): 44.3%
Thymus wt. ([1]; Table IV, 30 μg/pellet): 489 ± 26 mg
Relative potency (ED40) [1, 2]: 1228
Relative potency (ED60) [1, 2]: 184
ED40 ([1]; dose causing 40% inhibition of granulation tissue weight): 0.25 μg/pellet
ED50 ([1]; dose causing 50% inhibition of granulation tissue weight): 0.97 μg/pellet
ED60 ([1]; dose causing 60% inhibition of granulation tissue weight): 3.75 μg/pellet
Body weight gain (thymus weight in rats; Table VIII, 10 mg/kg/day s.c.): 5.3 ± 1.4 g
Thymus wt. (thymus weight in rats; Table VIII, 10 mg/kg/day s.c.): 260 ± 26 mg
Thymus wt. Inhibition (thymus weight in rats; Table VIII, 10 mg/kg/day s.c.): 52.7%

CC(C)OC(=O)O[C@]1(C(=O)OCCl)[C@@H](C)C[C@H]2[C@@H]3CCC4=CC(=O)C=C[C@]4(C)[C@@]3(F)C(=O)C[C@@]21C [chloromethyl 9α-fluoro-17α-isopropoxycarbonyloxy-16β-methylandrosta-1,4-dien-3,11-dione-17β-carboxylate]
Body wt. gain ([1]; Table V-b, 1 μg/pellet): 28.9 ± 1.1 g
Dry granulation Tissue ([1]; Table V-b, 1 μg/pellet): 59.1 ± 5.8 mg
Dry granulation Tissue Inhibition ([1]; Table V-b, 1 μg/pellet): 12.1%
Thymus wt. ([1]; Table V-b, 1 μg/pellet): 441 ± 24 mg
Body wt. gain ([1]; Table V-b, 3 μg/pellet): 25.8 ± 0.9 g
Dry granulation Tissue ([1]; Table V-b, 3 μg/pellet): 49.4 ± 3.7 mg
Dry granulation Tissue Inhibition ([1]; Table V-b, 3 μg/pellet): 26.5%
Thymus wt. ([1]; Table V-b, 3 μg/pellet): 519 ± 31 mg
Body wt. gain ([1]; Table V-b, 10 μg/pellet): 28.4 ± 0.8 g
Dry granulation Tissue ([1]; Table V-b, 10 μg/pellet): 51.1 ± 5.8 mg
Dry granulation Tissue Inhibition ([1]; Table V-b, 10 μg/pellet): 24.0%
Thymus wt. ([1]; Table V-b, 10 μg/pellet): 547 ± 35 mg
Body wt. gain ([1]; Table V-b, 30 μg/pellet): 27.4 ± 0.9 g
Dry granulation Tissue ([1]; Table V-b, 30 μg/pellet): 40.6 ± 3.6 mg
Dry granulation Tissue Inhibition ([1]; Table V-b, 30 μg/pellet): 39.6%
Thymus wt. ([1]; Table V-b, 30 μg/pellet): 536 ± 24 mg

CCCCCOC(=O)O[C@]1(C(=O)OCCl)[C@H](C)C[C@H]2[C@@H]3CCC4=CC(=O)C=C[C@]4(C)[C@@]3(F)[C@@H](O)C[C@@]21C [chloromethyl 9β-fluoro-11β-hydroxy-16α-methyl-17α-pentyloxycarbonyloxyandrosta-1,4-dien-3-one-17β-carboxylate]
Body weight gain (thymus weight in rats; Table IX, 1 mg/kg/day s.c.): 18.0 ± 1.5 g
Thymus wt. (thymus weight in rats; Table IX, 1 mg/kg/day s.c.): 387 ± 23 mg
Thymus wt. Decrease (thymus weight in rats; Table IX, 1 mg/kg/day s.c.): 9.2%
Body weight gain (thymus weight in rats; Table IX, 3 mg/kg/day s.c.): 15.6 ± 1.3 g
Thymus wt. (thymus weight in rats; Table IX, 3 mg/kg/day s.c.): 347 ± 15 mg
Thymus wt. Decrease (thymus weight in rats; Table IX, 3 mg/kg/day s.c.): 18.5%
Body weight gain (thymus weight in rats; Table IX, 10 mg/kg/day s.c.): 17.4 ± 1.5 g
Thymus wt. (thymus weight in rats; Table IX, 10 mg/kg/day s.c.): 357 ± 22 mg
Thymus wt. Decrease (thymus weight in rats; Table IX, 10 mg/kg/day s.c.): 16.2%
Body weight gain (thymus weight in rats; Table IX, 30 mg/kg/day s.c.): 13.5 ± 1.0 g
Thymus wt. (thymus weight in rats; Table IX, 30 mg/kg/day s.c.): 335 ± 17 mg
Thymus wt. Decrease (thymus weight in rats; Table IX, 30 mg/kg/day s.c.): 21.4%

CCOC(=O)O[C@]1(C(=O)OCCl)[C@H](C)C[C@H]2[C@@H]3CCC4=CC(=O)C=C[C@]4(C)[C@@]3(F)C(=O)C[C@@]21C [chloromethyl 17α-ethoxycarbonyloxy-9α-fluoro-16α-methylandrosta-1,4-dien-3,11-dione-17β-carboxylate]
Body wt. gain ([1]; Table V-b, 1 μg/pellet): 23.7 ± 1.5 g
Dry granulation Tissue ([1]; Table V-b, 1 μg/pellet): 55.3 ± 2.6 mg
Dry granulation Tissue Inhibition ([1]; Table V-b, 1 μg/pellet): 17.7%
Thymus wt. ([1]; Table V-b, 1 μg/pellet): 459 ± 41 mg
Body wt. gain ([1]; Table V-b, 3 μg/pellet): 25.6 ± 1.2 g
Dry granulation Tissue ([1]; Table V-b, 3 μg/pellet): 51.6 ± 5.9 mg
Dry granulation Tissue Inhibition ([1]; Table V-b, 3 μg/pellet): 23.2%
Thymus wt. ([1]; Table V-b, 3 μg/pellet): 467 ± 21 mg
Body wt. gain ([1]; Table V-b, 10 μg/pellet): 26.5 ± 2.5 g
Dry granulation Tissue ([1]; Table V-b, 10 μg/pellet): 41.5 ± 4.7 mg
Dry granulation Tissue Inhibition ([1]; Table V-b, 10 μg/pellet): 38.2%
Thymus wt. ([1]; Table V-b, 10 μg/pellet): 544 ± 31 mg
Body wt. gain ([1]; Table V-b, 30 μg/pellet): 20.3 ± 0.9 g
Dry granulation Tissue ([1]; Table V-b, 30 μg/pellet): 39.9 ± 3.6 mg
Dry granulation Tissue Inhibition ([1]; Table V-b, 30 μg/pellet): 40.6%
Thymus wt. ([1]; Table V-b, 30 μg/pellet): 463 ± 24 mg
